Structures are written as SMILES. Where only a bound is given, the exact number is not on record here.

Sequence of human NaV 1.7 (Q15858 whole entry): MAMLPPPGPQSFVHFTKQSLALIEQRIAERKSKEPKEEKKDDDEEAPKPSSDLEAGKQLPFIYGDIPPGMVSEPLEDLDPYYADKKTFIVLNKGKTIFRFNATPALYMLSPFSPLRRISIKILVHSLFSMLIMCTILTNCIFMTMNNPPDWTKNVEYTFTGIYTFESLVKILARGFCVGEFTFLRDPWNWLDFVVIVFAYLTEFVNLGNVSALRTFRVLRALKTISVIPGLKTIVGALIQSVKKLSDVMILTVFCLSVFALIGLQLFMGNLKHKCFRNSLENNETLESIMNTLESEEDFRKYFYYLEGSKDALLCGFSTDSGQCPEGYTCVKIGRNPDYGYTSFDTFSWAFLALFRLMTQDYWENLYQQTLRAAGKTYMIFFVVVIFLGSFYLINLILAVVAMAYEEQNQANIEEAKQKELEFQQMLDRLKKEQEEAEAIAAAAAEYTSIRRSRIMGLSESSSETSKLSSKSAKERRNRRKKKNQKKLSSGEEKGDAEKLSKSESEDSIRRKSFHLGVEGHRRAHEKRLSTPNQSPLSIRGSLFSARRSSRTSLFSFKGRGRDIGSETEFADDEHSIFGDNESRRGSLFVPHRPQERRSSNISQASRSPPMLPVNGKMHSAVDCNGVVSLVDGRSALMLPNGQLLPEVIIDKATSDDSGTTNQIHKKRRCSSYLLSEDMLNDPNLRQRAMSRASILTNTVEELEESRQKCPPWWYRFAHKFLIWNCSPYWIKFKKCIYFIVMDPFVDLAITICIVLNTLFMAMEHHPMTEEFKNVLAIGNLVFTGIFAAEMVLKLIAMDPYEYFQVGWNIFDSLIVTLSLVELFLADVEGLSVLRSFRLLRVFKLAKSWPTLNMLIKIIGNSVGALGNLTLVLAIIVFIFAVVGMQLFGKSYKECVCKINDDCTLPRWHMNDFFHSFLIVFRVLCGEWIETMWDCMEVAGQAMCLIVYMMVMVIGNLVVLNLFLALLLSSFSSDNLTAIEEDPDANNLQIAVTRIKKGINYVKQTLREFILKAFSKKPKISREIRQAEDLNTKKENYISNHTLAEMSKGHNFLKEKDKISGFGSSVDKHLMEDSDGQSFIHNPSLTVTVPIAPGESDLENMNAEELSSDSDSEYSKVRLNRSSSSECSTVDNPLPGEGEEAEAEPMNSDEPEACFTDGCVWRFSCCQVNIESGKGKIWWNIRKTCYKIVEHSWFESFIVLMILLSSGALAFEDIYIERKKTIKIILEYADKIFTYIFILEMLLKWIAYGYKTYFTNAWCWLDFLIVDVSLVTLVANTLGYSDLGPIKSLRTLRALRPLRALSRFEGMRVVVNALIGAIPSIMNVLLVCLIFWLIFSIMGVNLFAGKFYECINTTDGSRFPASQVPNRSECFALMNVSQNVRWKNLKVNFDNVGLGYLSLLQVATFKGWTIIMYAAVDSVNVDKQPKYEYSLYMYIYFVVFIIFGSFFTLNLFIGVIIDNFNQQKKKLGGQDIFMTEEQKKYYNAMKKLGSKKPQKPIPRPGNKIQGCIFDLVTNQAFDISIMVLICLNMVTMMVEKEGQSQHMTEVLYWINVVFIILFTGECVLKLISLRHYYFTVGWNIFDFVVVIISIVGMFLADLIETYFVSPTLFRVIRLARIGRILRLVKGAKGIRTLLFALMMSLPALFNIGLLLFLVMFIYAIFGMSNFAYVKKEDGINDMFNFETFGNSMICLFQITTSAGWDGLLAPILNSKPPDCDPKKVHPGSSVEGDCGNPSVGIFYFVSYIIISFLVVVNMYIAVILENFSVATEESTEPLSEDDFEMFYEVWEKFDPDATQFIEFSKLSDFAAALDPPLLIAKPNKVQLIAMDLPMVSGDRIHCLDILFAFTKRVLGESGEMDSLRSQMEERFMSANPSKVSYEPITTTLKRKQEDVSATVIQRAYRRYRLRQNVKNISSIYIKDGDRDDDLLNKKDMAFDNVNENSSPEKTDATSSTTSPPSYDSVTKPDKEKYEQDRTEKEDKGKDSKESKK

The target in the assay is human NaV 1.7 (Homo sapiens, UniProt Q15858). Nature of the assay: E-VIPR optical membrane potential assay with electrical stimulation. The settings on record: sodium channel inhibition; read-out: Binned Activity Data (IC50). Format: cell-based. A digest of the protocol:
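Membrane-potential read-out: background-subtracted 460 nm/580 nm ratio during a 9 s current-controlled stimulus, 400 Hz scan. Before stimulation, NaV1.7-HEK cells carried coumarin/oxonol dye and compound (final DMSO 0.625%) for 20–35 min at room temperature; tetracaine 125 μM served as positive control.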
As to `CCc1ccc(C(=O)N2CCC3(CC2)Oc2cc(C(=O)NC)ccc2-n2cccc23)cc1OC` [Compound 713], the IC50 (commonly the concentration needed to halve the response being measured) was no more than 2 µM.

Turning to `CN(C)S(=O)(=O)c1ccc(C(=O)N2CCC3(CC2)Oc2ccccc2-c2c3cnn2C)cc1` [Compound 714], the concentration for half-maximal inhibition (IC50) is 2 to 5 µM.

Turning to `COc1cc(C(=O)N2CCC3(CC2)Oc2ccccc2-c2c3cnn2C)ccc1C(C)(C)CO` [Compound 716], the IC50 was no more than 2 µM.

Turning to `Cn1c(C(=O)N2CCC3(CC2)Oc2cc(Cl)ccc2-n2cccc23)cccc1=O` [Compound 718], the half-inhibitory concentration (IC50) was 2 to 5 µM.

Consider `CC(C)NS(=O)(=O)c1ccc(C(=O)N2CCC3(CC2)Oc2ccccc2-n2c(C#N)ccc23)cc1` [Compound 721], for which the IC50 is no more than 2 µM.

`CC(C)(O)c1ccc(C(=O)N2CCC3(CC2)Oc2ccccc2-n2c(C(F)(F)F)ccc23)cc1` [Compound 722]: the IC50 was no more than 2 µM.

For the compound `COC(=O)C(C)(C)c1ccc(C(=O)N2CCC3(CC2)Oc2cc(Cl)ccc2-n2cccc23)cc1OC` [Compound 723], the half-inhibitory concentration (IC50) is no more than 2 µM.

Turning to `COc1cccc(C(=O)N2CCC3(CC2)Oc2cc(Cl)ccc2-n2cccc23)c1` [Compound 724], the concentration for half-maximal inhibition (IC50) is no more than 2 µM.

`COC[C@H](C)Oc1ccc(C(=O)N2CCC3(CC2)Oc2ccccc2-n2cccc23)cc1OC` [Compound 725]: the IC50 is no more than 2 µM.

`CC(C)(O)c1ccc(C(=O)N2CCC3(CC2)Oc2ncccc2-n2c(C(F)(F)F)ccc23)cc1` [Compound 726]: the IC50 is no more than 2 µM.

For the compound `COc1cc(C(=O)N2CCC3(CC2)Oc2ccccc2-n2cccc23)ccc1OC(C)(C)C` [Compound 727], the 50% inhibitory concentration (IC50) is no more than 2 µM.

`CCn1cccc(C(=O)N2CCC3(CC2)Oc2cc(Cl)ccc2-n2cccc23)c1=O` [Compound 728]: the 50% inhibitory concentration (IC50) is no more than 2 µM.

As to `COc1ccc(C(=O)N2CCC3(CC2)Oc2cc(Cl)ccc2-n2cccc23)c(OC(F)(F)F)c1` [Compound 729], the IC50 is no more than 2 µM.

Consider `Cc1cc(C(=O)N2CCC3(CC2)Oc2ccccc2-n2c(C(F)(F)F)ccc23)ccc1O` [Compound 732], for which the IC50 was no more than 2 µM.

With `Cc1cc(C(=O)N2CCC3(CC2)Oc2ccccc2-n2c(CN)ccc23)ccc1OC(C)C` [Compound 733], the IC50 is 2 to 5 µM.

Regarding `COc1cc(OC(C)(C)C#N)ccc1C(=O)N1CCC2(CC1)Oc1ccccc1-c1c2cnn1C` [Compound 734], the half-inhibitory concentration (IC50) is no more than 2 µM.

Turning to `CCc1ccc(C(=O)N2CCC3(CC2)Oc2ccccc2-n2c(C)ccc23)cc1OC` [Compound 735], the 50% inhibitory concentration (IC50) was no more than 2 µM.

Take `COc1ccc(C(=O)N2CCC3(CC2)Oc2cc(Cl)ccc2-n2cccc23)cc1S(N)(=O)=O` [Compound 736]: the half-inhibitory concentration (IC50) is greater than 5 µM.

As for `Cc1cc(C(=O)N2CCC3(CC2)Oc2cc(Cl)ccc2-n2cccc23)ccc1OC(C)C` [Compound 737], the IC50 was no more than 2 µM.

Turning to `CCOc1cccc(C(=O)N2CCC3(CC2)Oc2ccccc2-c2c3cnn2C)c1F` [Compound 738], the IC50 was 2 to 5 µM.

Regarding `COc1cccc(F)c1C(=O)N1CCC2(CC1)Oc1cc(Cl)ccc1-n1cccc12` [Compound 739], the IC50 was no more than 2 µM.

Turning to `Cn1cc2c(n1)-c1ccccc1OC21CCN(C(=O)c2ccccc2OC(F)F)CC1` [Compound 740], the IC50 is no more than 2 µM.

In the case of `Cn1ccc(C(=O)N2CCC3(CC2)Oc2cc(Cl)ccc2-n2cccc23)cc1=O` [Compound 741], the IC50 lay within 2 to 5 µM.

Turning to `CCn1ncc2c1-c1cc(F)ccc1OC21CCN(C(=O)c2ccc(OC(C)C)c(OC)c2)CC1` [Compound 742], the 50% inhibitory concentration (IC50) is 2 to 5 µM.

Take `CC[C@H](C)Oc1ccc(C(=O)N2CCC3(CC2)Oc2ccccc2-n2cccc23)cc1C#N` [Compound 744]: the IC50 was no more than 2 µM.

With `Cc1cc(C(=O)N2CCC3(CC2)Oc2ccccc2-c2c3cnn2C)cc(C)c1OC(C)C` [Compound 745], the concentration for half-maximal inhibition (IC50) is no more than 2 µM.

As for `Cc1c(CO)cccc1C(=O)N1CCC2(CC1)Oc1ccccc1-c1c2cnn1C` [Compound 746], the IC50 was 2 to 5 µM.

As to `COc1cc(C(=O)N2CCC3(CC2)Oc2ccccc2-c2nn(C)cc23)cc(OC)c1OC` [Compound 747], the IC50 was greater than 5 µM.

Consider `COc1cccc(OC)c1C(=O)N1CCC2(CC1)Oc1ccccc1-c1c2cnn1C` [Compound 748], for which the 50% inhibitory concentration (IC50) was in the range of 2 to 5 µM.

Regarding `Cc1cc(C(=O)N2CCC3(CC2)Oc2ccccc2-c2c3cnn2C)ccc1C(C)(C)O` [Compound 750], the IC50 is no more than 2 µM.

In the case of `COc1cc(C(=O)N2CCC3(CC2)Oc2cc(Cl)ccc2-n2cccc23)ccc1OC[C@@H]1COC(C)(C)O1` [Compound 751], the IC50 was no more than 2 µM.

`O=C(c1ccccc1OC(F)F)N1CCC2(CC1)Oc1ccccc1-c1nn(C(F)(F)F)cc12` [Compound 752]: the IC50 is no more than 2 µM.

For the compound `COc1cc(C(=O)N2CCC3(CC2)Oc2ccccc2-c2nn(C)cc23)ccc1C(C)(C)C` [Compound 754], the IC50 is greater than 5 µM.

`COc1cc(C(=O)N2CCC3(CC2)Oc2ccccc2-n2c(C#N)ccc23)ccc1OCC(C)C` [Compound 755]: the half-inhibitory concentration (IC50) was no more than 2 µM.

Turning to `COc1cc(C(=O)N2CCC3(CC2)Oc2ccccc2-c2c3cnn2C)ccc1OC(C)(C)C#N` [Compound 758], the 50% inhibitory concentration (IC50) was no more than 2 µM.

`COc1cc(C(=O)N2CCC3(CC2)Oc2cc(Cl)ccc2-n2cccc23)ccc1OC[C@H]1COC(C)(C)O1` [Compound 759]: the IC50 is no more than 2 µM.

With `COCCOc1ccc(C(=O)N2CCC3(CC2)Oc2ccccc2-c2c3cnn2C)cc1C` [Compound 761], the concentration for half-maximal inhibition (IC50) was no more than 2 µM.

Take `CC(C)(O)c1ccc(C(=O)N2CCC3(CC2)Oc2ccccc2-n2c(C#N)ccc23)cc1` [Compound 762]: the half-maximal inhibitory concentration (IC50) was no more than 2 µM.

For the compound `COc1cccc(F)c1C(=O)N1CCC2(CC1)Oc1ccccc1-c1c2cnn1C` [Compound 763], the half-inhibitory concentration (IC50) lay within 2 to 5 µM.

On to `CCCOc1ccc(C(=O)N2CCC3(CC2)Oc2ccccc2-n2cccc23)cc1C` [Compound 764], for which the IC50 is no more than 2 µM.

In the case of `Cc1[nH]c2c(C(=O)N3CCC4(CC3)Oc3ccccc3-c3c4cnn3C)cccc2c1C` [Compound 765], the half-inhibitory concentration (IC50) is no more than 2 µM.

`Cn1cc2c(n1)-c1ccccc1OC21CCN(C(=O)c2ccc(S(=O)(=O)NC3CC3)cc2)CC1` [Compound 767]: the half-inhibitory concentration (IC50) was no more than 2 µM.

On to `COc1cc(C(=O)N2CCC3(CC2)Oc2ccccc2-n2c3ccc2S(C)(=O)=O)ccc1OC(C)C` [Compound 768], for which the half-maximal inhibitory concentration (IC50) is no more than 2 µM.

Take `CCOc1c(F)cccc1C(=O)N1CCC2(CC1)Oc1ccccc1-n1c(C#N)ccc12` [Compound 769]: the concentration for half-maximal inhibition (IC50) was no more than 2 µM.

As for `CC(C)Oc1cccc(C(=O)N2CCC3(CC2)Oc2ccccc2-n2c(C#N)ccc23)c1F` [Compound 770], the IC50 is no more than 2 µM.

`Cn1ncc2c1-c1ccccc1OC21CCN(C(=O)c2ccccc2OCCO)CC1` [Compound 771]: the 50% inhibitory concentration (IC50) was no more than 2 µM.

With `COc1cc(C(=O)N2CCC3(CC2)Oc2cc(F)ccc2-n2cccc23)ccc1OCC(N)=O` [Compound 772], the IC50 was no more than 2 µM.

Regarding `Cc1ccc(C(=O)N2CCC3(CC2)Oc2ccccc2-c2c3cnn2C)c(Cl)c1` [Compound 773], the half-inhibitory concentration (IC50) is no more than 2 µM.

Regarding `COc1ccc(C(=O)N2CCC3(CC2)Oc2ccccc2-c2c3cnn2C)c(C)c1` [Compound 774], the half-inhibitory concentration (IC50) is no more than 2 µM.

As to `O=C(c1ccc(OC2COC2)c(F)c1)N1CCC2(CC1)Oc1cc(Cl)ccc1-n1cccc12` [Compound 777], the IC50 was no more than 2 µM.

`O=C(c1ccc(S(=O)(=O)C(F)F)cc1)N1CCC2(CC1)Oc1ccccc1-n1c(C(F)(F)F)ccc12` [Compound 778]: the half-maximal inhibitory concentration (IC50) was no more than 2 µM.

With `CC(c1ccc(C(=O)N2CCC3(CC2)Oc2ccccc2-n2c(C#N)ccc23)cc1)S(C)(=O)=O` (stereo not drawn) [Compound 781], the 50% inhibitory concentration (IC50) lay within 2 to 5 µM.

Turning to `Cc1cc(S(C)(=O)=O)ccc1C(=O)N1CCC2(CC1)Oc1ccccc1-n1c(C#N)ccc12` [Compound 784], the IC50 was no more than 2 µM.

Turning to `COc1cc(C(=O)N2CCC3(CC2)Oc2ccccc2-c2c3cnn2CC(F)(F)F)ccc1OCCC(C)C` [Compound 785], the IC50 is no more than 2 µM.

`CC(C)Oc1ccc(C(=O)N2CCC3(CC2)Oc2ccccc2-c2c3cnn2C)c(OC(C)C)c1` [Compound 788]: the IC50 was no more than 2 µM.

Regarding `N#Cc1ccc2n1-c1ccccc1OC21CCN(C(=O)c2ccc(OC[C@H](O)CO)cc2)CC1` [Compound 789], the IC50 is greater than 5 µM.

For the compound `O=C(c1ccccc1O)N1CCC2(CC1)Oc1cc(Cl)ccc1-n1cccc12` [Compound 790], the half-maximal inhibitory concentration (IC50) was no more than 2 µM.

For the compound `COCCOc1ccc(C(=O)N2CCC3(CC2)Oc2ccccc2-n2cccc23)cc1OC` [Compound 791], the IC50 was no more than 2 µM.

For `Cc1cc(C(=O)N2CCC3(CC2)Oc2cc(Cl)ccc2-n2cccc23)ccc1C(C)(C)O` [Compound 792], the concentration for half-maximal inhibition (IC50) was no more than 2 µM.

Take `Cc1ccc(C(=O)N2CCC3(CC2)Oc2ccccc2-n2c3ccc2S(C)(=O)=O)cc1Cl` [Compound 793]: the 50% inhibitory concentration (IC50) was no more than 2 µM.

In the case of `O=C(c1ccc(S(=O)(=O)CCO)cc1)N1CCC2(CC1)Oc1ccccc1-n1c(C(F)(F)F)ccc12` [Compound 794], the 50% inhibitory concentration (IC50) is greater than 5 µM.

Regarding `Cc1cc(C(C)(C)O)ccc1C(=O)N1CCC2(CC1)Oc1ccc(F)cc1-c1nn(C)cc12` [Compound 796], the IC50 is no more than 2 µM.

On to `Cc1cccc(C(=O)N2CCC3(CC2)Oc2ccccc2-c2c3cnn2C)c1C` [Compound 797], for which the 50% inhibitory concentration (IC50) is no more than 2 µM.

For the compound `COc1ccc(F)cc1C(=O)N1CCC2(CC1)Oc1cc(Cl)ccc1-n1c(C#N)ccc12` [Compound 799], the half-maximal inhibitory concentration (IC50) is no more than 2 µM.

Consider `COc1c(C)cc(C(=O)N2CCC3(CC2)Oc2ccccc2-c2c3cnn2C)cc1C` [Compound 801], for which the concentration for half-maximal inhibition (IC50) was no more than 2 µM.

As to `CC(C)S(=O)(=O)c1ccc(C(=O)N2CCC3(CC2)Oc2cc(F)ccc2-n2c(C(F)(F)F)ccc23)cc1` [Compound 804], the IC50 is greater than 5 µM.

As for `CCCOc1ccc(C(=O)N2CCC3(CC2)Oc2cccnc2-n2cccc23)cc1C(F)(F)F` [Compound 805], the IC50 was no more than 2 µM.

With `N#Cc1ccc2n1-c1ccccc1OC21CCN(C(=O)c2ccc(F)cc2Cl)CC1` [Compound 807], the IC50 is greater than 5 µM.

Regarding `CS(=O)(=O)c1ccc(C(=O)N2CCC3(CC2)Oc2cc(Cl)ccc2-n2cccc23)c(Cl)c1` [Compound 808], the IC50 was no more than 2 µM.

Values taken from patent publication US9365588B2, “Benzoxazines as modulators of ion channels” (Vertex Pharmaceuticals Incorporated, priority 2011, dated 2016).
